Reference: paper PMC7004070 (Chemmedchem, 2019)
Entries after “also recorded” stand apart in the source; their conditions may differ.

Legend:
recombinant human sEH = biological target: T1, recombinant human sEH (Homo sapiens, UniProt P34913); test: sEH activity assay on recombinant protein; type: biochemical
T1 sequence (P34913 1-555): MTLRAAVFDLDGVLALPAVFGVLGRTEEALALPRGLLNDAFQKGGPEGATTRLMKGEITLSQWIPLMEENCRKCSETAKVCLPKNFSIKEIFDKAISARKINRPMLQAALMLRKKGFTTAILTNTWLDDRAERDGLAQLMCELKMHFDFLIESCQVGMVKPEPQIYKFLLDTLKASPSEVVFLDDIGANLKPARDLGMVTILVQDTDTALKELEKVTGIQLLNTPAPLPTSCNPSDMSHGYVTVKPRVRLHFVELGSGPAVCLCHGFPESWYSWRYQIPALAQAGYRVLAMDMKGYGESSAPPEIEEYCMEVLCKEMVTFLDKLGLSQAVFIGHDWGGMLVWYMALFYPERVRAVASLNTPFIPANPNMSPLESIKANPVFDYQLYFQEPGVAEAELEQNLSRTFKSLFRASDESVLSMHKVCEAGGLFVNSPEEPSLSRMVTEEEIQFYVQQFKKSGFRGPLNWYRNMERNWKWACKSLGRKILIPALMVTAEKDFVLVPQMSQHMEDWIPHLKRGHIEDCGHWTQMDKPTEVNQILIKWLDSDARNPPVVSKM

human full-length FXR = biological target: T2, human full-length FXR (Homo sapiens, UniProt Q96RI1); test: full-length FXR-BSEP reporter gene assay; type: cell-based; details: for FXR EC50: full-length FXR-BSEP reporter gene assay, HeLa cells, mean±S.E.M., n≥3, inactive = no significant activation up to 30 μM; for Emax: HeLa, read-out: FXR max. rel. act.
T2 sequence (Q96RI1 1-486): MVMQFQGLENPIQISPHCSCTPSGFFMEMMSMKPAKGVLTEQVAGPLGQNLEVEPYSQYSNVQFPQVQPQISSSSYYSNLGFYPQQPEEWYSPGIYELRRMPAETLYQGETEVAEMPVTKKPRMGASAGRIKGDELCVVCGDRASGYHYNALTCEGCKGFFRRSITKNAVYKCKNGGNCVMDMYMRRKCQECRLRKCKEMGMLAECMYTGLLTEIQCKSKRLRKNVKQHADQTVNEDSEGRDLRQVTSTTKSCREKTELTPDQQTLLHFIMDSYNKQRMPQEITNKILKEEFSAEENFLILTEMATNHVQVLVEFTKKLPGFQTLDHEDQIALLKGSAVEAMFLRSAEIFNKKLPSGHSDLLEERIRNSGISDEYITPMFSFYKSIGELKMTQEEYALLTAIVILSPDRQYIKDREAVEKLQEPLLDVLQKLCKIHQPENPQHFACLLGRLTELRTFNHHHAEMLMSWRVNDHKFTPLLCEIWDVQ
T2 sequence (P19793 1-462 partner): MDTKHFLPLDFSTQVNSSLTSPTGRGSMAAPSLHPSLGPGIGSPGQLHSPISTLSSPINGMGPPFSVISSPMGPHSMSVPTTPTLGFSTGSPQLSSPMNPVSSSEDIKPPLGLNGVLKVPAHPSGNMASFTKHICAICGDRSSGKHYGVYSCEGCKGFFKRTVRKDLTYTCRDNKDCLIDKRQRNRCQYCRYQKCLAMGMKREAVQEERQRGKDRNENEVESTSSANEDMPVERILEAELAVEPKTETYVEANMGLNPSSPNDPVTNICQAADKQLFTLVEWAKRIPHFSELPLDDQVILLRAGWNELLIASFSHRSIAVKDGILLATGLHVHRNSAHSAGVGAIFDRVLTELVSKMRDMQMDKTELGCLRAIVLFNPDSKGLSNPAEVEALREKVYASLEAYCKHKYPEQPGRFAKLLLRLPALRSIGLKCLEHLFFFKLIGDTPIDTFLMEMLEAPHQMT

[1] = tested on: FXR regulated genes (OSTα, SHP, CYP7A1) in HepG2 cells; type: cell-based; details: 10 μM, 12 h, qPCR, n=3
[2] = biological target: T3, sEH in HepG2 cell homogenate (Homo sapiens, UniProt P34913); test: Cellular sEH assay: conversion of; type: cell-based; details: 10 μM; HepG2 homogenates; (±)14(15)-EET-d11; n≥4
T3 sequence (P34913 1-555): T1 sequence (P34913 1-555)

[3] = tested on: nuclear receptors related to FXR (PPARα, PPARγ, PPARδ, LXRα, LXRβ, RXRα, RARα, CAR); test: Gal4 hybrid reporter gene assays for nuclear receptors related to FXR; type: cell-based, human; details: HEK293T, mean, n=2
HepG2 cells = test: WST-1 assay in HepG2 cells; type: cell-based; details: n=4; for cytotoxicity compared to 3: WST-1 assay in HepG2 cells; for concentration with anti-proliferative / toxic effect: WST-1 assay, HepG2 cells, 24 h
human CysLT1R = biological target: T4, human CysLT1R (Homo sapiens, UniProt Q9Y271); test: CysLT1R antagonism assay, cell-based
T4 sequence (Q9Y271 1-337): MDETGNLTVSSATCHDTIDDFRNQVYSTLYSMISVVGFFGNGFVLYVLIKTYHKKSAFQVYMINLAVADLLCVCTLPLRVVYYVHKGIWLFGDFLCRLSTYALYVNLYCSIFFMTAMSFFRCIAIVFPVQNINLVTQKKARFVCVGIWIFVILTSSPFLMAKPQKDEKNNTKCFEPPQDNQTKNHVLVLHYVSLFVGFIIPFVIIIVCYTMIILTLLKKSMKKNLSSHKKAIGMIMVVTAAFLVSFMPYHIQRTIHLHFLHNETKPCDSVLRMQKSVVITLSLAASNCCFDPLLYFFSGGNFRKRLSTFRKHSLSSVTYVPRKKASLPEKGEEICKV

RARα = biological target: T5, RARα (Homo sapiens, UniProt P10276); test: Gal4 hybrid reporter gene assay for RARα in HEK293T cells; type: cell-based; details: mean, n=2
T5 sequence (P10276 183-417 limits assumed): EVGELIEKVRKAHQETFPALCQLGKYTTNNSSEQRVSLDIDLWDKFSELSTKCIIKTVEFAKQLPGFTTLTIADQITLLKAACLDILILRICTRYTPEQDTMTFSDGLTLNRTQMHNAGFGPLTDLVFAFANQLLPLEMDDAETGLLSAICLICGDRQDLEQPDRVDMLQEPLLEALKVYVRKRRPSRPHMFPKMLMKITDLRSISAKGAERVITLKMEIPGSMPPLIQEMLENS

CysLT1R = details: read-out: CysLT1R Ki; cited from earlier work

Row | SMILES | IC50 (recombinant human sEH) [µM] | Emax (human full-length FXR) [%] | EC50 (human full-length FXR) [µM] | other results
1 | COc1cc(C(=O)O)ccc1Cc1cn(C)c2ccc(NC(=O)c3c(-c4c(Cl)cccc4Cl)noc3C(C)C)cc12 [compound 6, 4‐((5‐(3‐(2,6‐Dichlorophenyl)‐5‐isopropylisoxazole‐4‐carboxamido)‐1‐methyl‐1H‐indol‐3‐yl)methyl)‐3‐methoxybenzoic acid] | 3.3 ± 0.6 |  |  | FXR EC50 (human full-length FXR): inactive
2 | COc1cc(C(=O)O)ccc1Cn1ccc2ccc(NC(=O)c3ccc(C(C)(C)C)cc3)cc21 [compound 13, 4‐((6‐(4‐(tert‐Butyl)benzamido)‐1H‐indol‐1‐yl)methyl)‐3‐methoxybenzoic acid] |  | 15 |  | OSTα expression [1]: induced expression; SHP expression [1]: induced expression; conversion of EET to DHET (cellular sEH inhibition) [2]: blocked EET conversion to DHETs; selectivity over nuclear receptors related to FXR [3]: selective; also recorded: high selectivity; higher potency on FXR compared to 16 (human full-length FXR; 13 compared to 16): approx. 10 fold; improvement of EC50 value on FXR compared to 3 (human full-length FXR; compared to 3): 15 fold; cytotoxicity compared to 3 (HepG2 cells): reduced cytotoxicity; also recorded: strongly reduced toxicity; concentration with anti-proliferative / toxic effect (HepG2 cells): > 10 µM; IC50 (human CysLT1R): ~1 µM
3 | COc1ccc(C(=O)O)cc1Cc1cn(C)c2ccc(NC(=O)c3ccc(C(C)(C)C)cc3)cc12 [compound 9, 3‐((5‐(4‐tert‐Butylbenzamido)‐1‐methyl‐1H‐indol‐3‐yl)methyl)‐4‐methoxybenzoic acid] | 86 ± 10 |  |  | FXR EC50 (human full-length FXR): inactive
4 | Cn1cc(Cc2ccc(C(=O)O)cc2)c2cc(NC(=O)c3ccc(C(C)(C)C)cc3)ccc21 [compound 8, 4‐((5‐(4‐(tert‐Butyl)benzamido)‐1‐methyl‐1H‐indol‐3‐yl)methyl)benzoic acid] | 12 ± 1 |  | > 10 | 
5 | CC(C)(C)c1ccc(C(=O)Nc2ccc3ccn(Cc4ccc(C(=O)O)cc4)c3c2)cc1 [compound 16, 4‐((6‐(4‐(tert‐Butyl)benzamido)‐1H‐indol‐1‐yl)methyl)benzoic acid] |  | 24 |  | OSTα expression [1]: induced expression; SHP expression [1]: induced expression; conversion of EET to DHET (cellular sEH inhibition) [2]: blocked EET conversion to DHETs; selectivity over nuclear receptors related to FXR [3]: selective; also recorded: high selectivity; RARα activation (RARα): considerable RARα agonism; also recorded: marked RARα activation; cytotoxicity compared to 3 (HepG2 cells): reduced cytotoxicity; also recorded: strongly reduced toxicity; concentration with anti-proliferative / toxic effect (HepG2 cells): > 10 µM; IC50 (human CysLT1R): > 1 µM
6 | COc1cc(C(=O)O)ccc1Cc1cn(C)c2ccc(NC(=O)c3ccncc3)cc12 [compound 7, 4‐((5‐(Isonicotinamido)‐1‐methyl‐1H‐indol‐3‐yl)methyl)‐3‐methoxybenzoic acid] | > 100 | 15 | 0.91 ± 0.06 | 
7 | CC(C)(C)c1ccc(C(=O)Nc2ccc3ccn(Cc4cccc(C(=O)O)c4)c3c2)cc1 [compound 15, 3‐((6‐(4‐(tert‐Butyl)benzamido)‐1H‐indol‐1‐yl)methyl)benzoic acid] | 4.3 ± 0.4 |  |  | FXR EC50 (human full-length FXR): inactive
8 | COc1cc(C(=O)NS(=O)(=O)c2ccccc2C)ccc1Cc1cn(C)c2ccc(NC(=O)OC3CCCC3)cc12 [compound 3, Zafirlukast, reference compound] |  |  |  | concentration with anti-proliferative / toxic effect (HepG2 cells): ≥ 1 µM; Ki (CysLT1R): 0.0003 µM
9 | Cn1cc(Cc2cccc(C(=O)O)c2)c2cc(NC(=O)c3ccc(C(C)(C)C)cc3)ccc21 [compound 10, 3‐((5‐(4‐(tert‐Butyl)benzamido)‐1‐methyl‐1H‐indol‐3‐yl)methyl)benzoic acid] | 22 ± 3 | 18 | 1.19 ± 0.08 | 

Second part, led by results:

Row | IC50 (recombinant human sEH) [µM] | SMILES | Emax (human full-length FXR) [%] | EC50 (human full-length FXR) [µM] | other results
10 | > 30 | COc1cc(C(=O)O)ccc1Cc1cn(C)c2ccc(NC(=O)c3ccc(C(C)(C)C)cc3)cc12 [compound 5, 4‐((5‐(4‐(tert‐Butyl)benzamido)‐1‐methyl‐1H‐indol‐3‐yl)methyl)‐3‐methoxybenzoic acid] | 29 | 0.6 ± 0.2 | 
11 | > 100 | COc1cc(C(=O)O)ccc1Cc1cn(C(C)C)c2ccc(NC(=O)c3ccc(C(C)(C)C)cc3)cc12 [compound 11, 4‐((5‐(4‐(tert‐Butyl)benzamido)‐1‐isopropyl‐1H‐indol‐3‐yl)methyl)‐3‐methoxybenzoic acid] | 11 | 2.3 ± 0.1 | 
12 | > 100 | COc1cc(C(=O)O)ccc1Cn1ccc2cc(NC(=O)c3ccc(C(C)(C)C)cc3)ccc21 [compound 12, 4‐((5‐(4‐(tert‐Butyl)benzamido)‐1H‐indol‐1‐yl)methyl)‐3‐methoxybenzoic acid] | 23 | 9.2 ± 0.8 | 
13 | 18 ± 5 | COc1cc(C(=O)O)ccc1Cn1cnc2ccc(NC(=O)c3ccc(C(C)(C)C)cc3)cc21 [compound 14, 4‐((6‐(4‐(tert‐Butyl)benzamido)‐1H‐benzoimidazol‐1‐yl)methyl)‐3‐methoxybenzoic acid] | 26 | 5.3 ± 0.4 | decrease of activity on sEH compared to 13 (recombinant human sEH; benzimidazole 14 vs indole 13): approx. 10 fold
